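48-hour exposure; five concentrations; linearly interpolated endpoints. Here, GI50 denotes the concentration required for 50% inhibition of growth. Definition used: TGI = concentration required for complete inhibition of growth.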
How the values were obtained:
Test in all cases: NCI tumour cell line growth inhibition, 48 h
[1] = test system: SF-539 CNS
[2] = test system: SK-MEL-2 melanoma
[3] = test system: EKVX NSCLC
[4] = test system: MCF7 breast
[5] = test system: HL-60(TB) leukemia
[6] = test system: IGROV1 ovarian
[7] = test system: SW-620 colon
[8] = test system: UO-31 renal
[9] = test system: KM12 colon
[10] = test system: U251 CNS
[11] = test system: 786-0 renal
[12] = test system: RXF 393 renal
[13] = test system: HOP-92 NSCLC
[14] = test system: CCRF-CEM leukemia
[15] = test system: SK-OV-3 ovarian
[16] = test system: UACC-257 melanoma
[17] = test system: UACC-62 melanoma
[18] = test system: NCI-H460 lung
[19] = test system: SNB-19 CNS
[20] = test system: COLO 205 colon
[21] = test system: ACHN renal
[22] = test system: NCI-H23 lung
[23] = test system: HCC-2998 colon
[24] = test system: NCI-H522 lung
[25] = test system: MOLT-4 leukemia
[26] = test system: NCI/ADR-RES ovarian
[27] = test system: OVCAR-5 ovarian

Question: `Nc1ccc(-c2nnc(SCc3ccc(O)c4ncccc34)n2-c2ccccc2)cc1` was tested. Which GI50 [1] did it give?
Answer: 48 nM

Question: What about the TGI [1] of the same compound?
Answer: > 100000 nM

Question: What about the GI50 [2] of the same compound?
Answer: 64.4 nM

Question: And the TGI [2]?
Answer: 4840 nM

Question: And the GI50 [3]?
Answer: 415 nM

Question: What about the TGI [3] of the same compound?
Answer: > 100000 nM

Question: What about the GI50 [4] of the same compound?
Answer: 28.7 nM

Question: What about the TGI [4] of the same compound?
Answer: > 100000 nM

Question: What about the GI50 [5] of the same compound?
Answer: 40.5 nM

Question: And the TGI [5]?
Answer: > 100000 nM

Question: And the GI50 [6]?
Answer: 49.7 nM

Question: And the TGI [6]?
Answer: > 100000 nM

Question: And the GI50 [7]?
Answer: 45.4 nM

Question: And the TGI [7]?
Answer: > 100000 nM

Question: And the GI50 [8]?
Answer: 140 nM

Question: What about the TGI [8] of the same compound?
Answer: > 100000 nM

Question: What about the GI50 [9] of the same compound?
Answer: 50.4 nM

Question: What about the TGI [9] of the same compound?
Answer: > 100000 nM

Question: And the GI50 [10]?
Answer: 25.4 nM

Question: What about the TGI [10] of the same compound?
Answer: > 100000 nM

Question: What about the GI50 [11] of the same compound?
Answer: 238 nM

Question: And the TGI [11]?
Answer: > 100000 nM

Question: And the GI50 [12]?
Answer: 81.6 nM

Question: And the TGI [12]?
Answer: > 100000 nM

Question: What about the TGI [13] of the same compound?
Answer: 20.3 nM

Question: And the GI50 [14]?
Answer: 36.8 nM

Question: And the TGI [14]?
Answer: > 100000 nM

Question: What about the GI50 [15] of the same compound?
Answer: 118 nM

Question: What about the TGI [15] of the same compound?
Answer: 911 nM

Question: And the GI50 [16]?
Answer: 62.2 nM

Question: And the GI50 [17]?
Answer: 65 nM

Question: And the TGI [17]?
Answer: 13200 nM

Question: And the GI50 [18]?
Answer: 19 nM

Question: What about the TGI [18] of the same compound?
Answer: > 33000 nM

Question: And the GI50 [19]?
Answer: 32.3 nM

Question: What about the TGI [19] of the same compound?
Answer: > 100000 nM

Question: What about the GI50 [20] of the same compound?
Answer: 1010 nM

Question: What about the TGI [20] of the same compound?
Answer: 3420 nM

Question: And the GI50 [21]?
Answer: 63.9 nM

Question: What about the GI50 [22] of the same compound?
Answer: 32.2 nM

Question: What about the TGI [22] of the same compound?
Answer: > 100000 nM

Question: What about the GI50 [23] of the same compound?
Answer: 58.3 nM

Question: And the TGI [23]?
Answer: > 100000 nM

Question: And the GI50 [24]?
Answer: 26.8 nM

Question: What about the TGI [24] of the same compound?
Answer: 6810 nM

Question: What about the GI50 [25] of the same compound?
Answer: 48.5 nM

Question: And the TGI [25]?
Answer: > 100000 nM

Question: What about the GI50 [26] of the same compound?
Answer: 2290 nM

Question: What about the TGI [26] of the same compound?
Answer: > 100000 nM

Question: And the GI50 [27]?
Answer: 290 nM

Question: And the TGI [27]?
Answer: > 100000 nM
